# According to patent US20260028374A1, “EPIDERMAL GROWTH FACTOR RECEPTOR INHIBITORS” (FILAMON LTD, priority 2023, published 2026):
# Square brackets hold non-standard residues; d marks the D form. Peptide text beside a SMILES is read from it. 2Nal = N[C@@H](Cc1ccc2ccccc2c1)C(=O)O
# Key:
# EGFR = EGFR (Homo sapiens, UniProt P00533); assay: Western blot of EGFR in PC-3 cells; type: cell-based; details: PC-3, 100 μM, 24 hours
# Description: FIG. 3. (a) PC-3 cells treated with DMSO (0.5%), FLM-c2 (100 μM), D1-D3 (100 μM) or EGF (50 ng/mL) for 24 h, detected for EGFR and GAPDH. (b) PC-3 cells tagged with EGFR-EGFP and lysotracker treated with DMSO (0.5%) or D3 (100 μM) for 24 h.
# FIG. 4. (a) PC-3 cells were treated with D1-D3 (100 μM) for 3, 16, 24 and 48 hours. EGFR and ß-Actin ratio was detected. (b) the EGFR:ß-Actin ratio was plotted after normalising to DMSO control.
# PC-3 cells were seeded in a 6 well plate at 200,000 cells/well overnight at 37° C. and 5% C02. Media was removed, cells were washed with PBS and serum free media added 1 hour before treatment with FLM-c2, D1-D3 for 3-48 hours. After treatment, media was removed and cells were washed with ice cold PBS. PBS was removed and cells were scraped into 1 mL of PBS containing 5.3 mM of EDTA and centrifuged at 2500 g for 2 min. PBS was removed and cells were lysed with lysis buffer (PBS, 0.1% NP-40, 0.1% sodium deoxycholate, 150 mM NaCl, 1 mM EDTA, 1 mM dithiothreitol, 1 mM phenylmethylsulfonyl fluoride, and IX protease inhibitor cocktail)^17 and mixed with RM-2L Intelli-mixer for 30 min at 4° C. Lysates were then centrifuged at 12,000 g for 20 min at 4° C. 20 μg of lysate was added to 4 μL of Bolt reducing agent and 10 μL of reducing buffer (both reagents supplied by Thermo Fisher Scientific) for a final volume of 40 μL with PBS. Samples were boiled and run on a gel, transferred to a membrane and blocked for 1 hour in 5% skim milk at 25° C. Membrane was probed with either EGFR antibody #2232, GAPDH antibody #2118 or BS-Actin antibody #4970 (Cell Signalling) at 1:1000 in 5% skim milk/TBST overnight at 4° C. Each membrane was washed three times with 50 mL TBST for 5 mins and then incubated with the relevant secondary α-rabbit IgG-HRP-linked antibody (1:1000), for 1 hour at room temperature. The membrane was washed as described above and imaged with the Licor Odyssey.
# [1] = test system: hGIIA-driven eicosanoid production; details: prostate cancer cells; Mann et al. in review; cited from earlier work
# EGF-EGFR interaction = target: T1, EGF-EGFR interaction (Homo sapiens, UniProt P00533); assay: EGF-EGFR AlphaLISA assay; type: binding; details: in vitro AlphaLISA
# T1 construct: purchased Perkin-Elmer
# T1 sequence (P00533 25-645 limits assumed): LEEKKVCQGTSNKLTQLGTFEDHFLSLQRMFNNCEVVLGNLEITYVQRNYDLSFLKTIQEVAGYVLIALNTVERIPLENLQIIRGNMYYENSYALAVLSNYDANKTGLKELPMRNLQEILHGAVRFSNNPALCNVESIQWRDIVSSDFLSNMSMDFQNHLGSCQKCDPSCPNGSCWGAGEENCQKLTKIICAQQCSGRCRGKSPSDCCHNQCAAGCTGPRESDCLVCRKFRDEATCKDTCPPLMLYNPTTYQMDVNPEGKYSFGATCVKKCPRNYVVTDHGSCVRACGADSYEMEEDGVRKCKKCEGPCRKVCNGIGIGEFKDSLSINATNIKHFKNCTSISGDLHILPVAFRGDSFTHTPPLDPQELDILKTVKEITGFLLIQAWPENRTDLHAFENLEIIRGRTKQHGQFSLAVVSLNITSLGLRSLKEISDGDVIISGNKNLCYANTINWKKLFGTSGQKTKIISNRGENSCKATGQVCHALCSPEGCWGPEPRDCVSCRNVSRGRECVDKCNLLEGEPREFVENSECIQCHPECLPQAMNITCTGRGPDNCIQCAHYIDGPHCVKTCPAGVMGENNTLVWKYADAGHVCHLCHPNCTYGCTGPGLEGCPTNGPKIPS
# Description: FIG. 2. […] Representation of the molecules are as described in FIG. 1.
# The AlphaLISA EGF/EGFR binding kit (Perkin-Elmer) was used as per the manufacturer's instructions. […] Finally, 5 μL of EGFR acceptor beads were added, and fluorescence imaged on a plate reader.
# [2] = test system: EGFR, Rab5 and hGIIA localisation; assay: Live cell imaging of EGFR, Rab5 and hGIIA localisation in PC-3 cells; type: cell-based; details: PC-3, c2 10 μM with hGIIA/AF647, 24 hours
# Description: The effect of c2 on EGFR, Rab5 and hGIIA localisation was also examined in PC-3 cells. PC-3 cells were co-transfected with EGFR-EGFP and Rab5-mCherry before treatment with hGIIA/AF647 and c2 at 0, 1 and 10 μM.
# PC-3 cells = assay: MTS cell viability assay; type: cell-based; details: PC-3, MTS, 72 hours, 0-250 μM
# Description: FIG. 2. (a) Structure of FLM-c2 derivatives D1 (top), D2 (middle) and D3 (bottom) (b) Molecular modelling of compounds D1, D2 and D3. Representation of the molecules are as described in FIG. 1. (c) MTS assay of PC-3 cells treated with FLM-c2, D-1 D3 (0.1-250 μM).
# To quantify cell toxicity of FLM-c2, the MTS (3-(4,5-dimethylthiazol-2-yl)-5-(3-carboxymethoxyphenyl)-2-(4-sulfophenyl)-2H-tetrazolium) assay was performed using CellTiter 96@AQueous One Solution Cell Proliferation Assay reagent (Promega, Madison, WI), as per the manufacturer's instructions. PC-3 cells were seeded at 2000 cells per well on a 96 well plate overnight at 37° C. and 5% C02. Cells were then treated with 0-250 μM with each of FLM-c2, D1, D2 and D3, which was incubated for 72 hours at 37° C. and 5% C02. Medium was replaced with 100 μL/well of phenol red-free MEM (Sigma-Aldrich) and 20 μL/well of the MTS reagent was added. After incubation for 3 hours in 37° C. with 5% C02, the absorbance was measured at 490 nm with Spectramax M5e.
# [3] = target: T2, hGIIA interaction with EGFR (Homo sapiens, UniProt P00533); assay: Co-immunoprecipitation of hGIIA and EGFR in PC-3 cells; type: cell-based; details: PC-3, hGIIA 2 μg/mL, FLM-c2 100 μM
# T2 construct: endogenous in cells; host or cells: PC-3
# T2 sequence (P00533 25-1210): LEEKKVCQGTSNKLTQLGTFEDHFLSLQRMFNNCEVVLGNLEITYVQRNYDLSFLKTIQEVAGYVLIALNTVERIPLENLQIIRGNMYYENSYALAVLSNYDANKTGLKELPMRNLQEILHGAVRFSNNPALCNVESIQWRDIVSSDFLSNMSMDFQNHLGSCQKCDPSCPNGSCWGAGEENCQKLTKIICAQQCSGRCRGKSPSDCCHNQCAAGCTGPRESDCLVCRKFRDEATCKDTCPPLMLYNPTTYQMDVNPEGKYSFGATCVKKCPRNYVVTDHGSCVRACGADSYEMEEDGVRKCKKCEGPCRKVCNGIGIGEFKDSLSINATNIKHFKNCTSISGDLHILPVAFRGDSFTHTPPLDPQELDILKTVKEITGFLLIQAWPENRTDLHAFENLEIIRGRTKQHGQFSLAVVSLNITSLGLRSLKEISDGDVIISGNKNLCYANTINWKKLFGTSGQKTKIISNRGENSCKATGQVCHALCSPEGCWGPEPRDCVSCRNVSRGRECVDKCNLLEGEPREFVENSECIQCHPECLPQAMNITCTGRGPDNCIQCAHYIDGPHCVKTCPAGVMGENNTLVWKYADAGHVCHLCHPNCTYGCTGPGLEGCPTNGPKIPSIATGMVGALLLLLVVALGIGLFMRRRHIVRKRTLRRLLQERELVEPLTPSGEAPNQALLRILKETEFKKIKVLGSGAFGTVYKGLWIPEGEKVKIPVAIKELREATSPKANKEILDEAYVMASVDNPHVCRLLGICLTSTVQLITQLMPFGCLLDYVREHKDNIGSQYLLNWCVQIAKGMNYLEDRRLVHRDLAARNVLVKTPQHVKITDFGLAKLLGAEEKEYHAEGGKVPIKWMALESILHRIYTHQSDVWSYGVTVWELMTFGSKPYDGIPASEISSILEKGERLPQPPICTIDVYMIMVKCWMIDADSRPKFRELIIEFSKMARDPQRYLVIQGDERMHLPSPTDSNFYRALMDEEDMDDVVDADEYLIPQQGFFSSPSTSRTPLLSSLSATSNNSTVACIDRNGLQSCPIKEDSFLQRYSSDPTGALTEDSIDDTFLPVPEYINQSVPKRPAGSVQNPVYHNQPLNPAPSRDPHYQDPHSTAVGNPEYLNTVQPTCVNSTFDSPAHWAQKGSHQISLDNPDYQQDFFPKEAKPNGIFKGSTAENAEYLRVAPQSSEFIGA
# Description: FIG. 1. (a), Amino acid sequence of human group IIA-secreted phospholipase A2 (hGIIA) predicted to interact with EGF-binding site of EGFR shown in magenta; helices shown as red braids; β strands as green arrows; and loops as blue lines. Sequence from which FLM-c2 is derived shown with orange box. (b), Prostate cancer cell line PC-3 incubated with hGIIA (2 μg/mL) and FLM-c2 (100 μM) for 3 hours before lysing and pulldown with hGIIA antibody followed by detection with EGFR antibody. (c), molecular modelling of EGF (pink ribbon) and (d), FLM-c2 analogue (cyclo-(Phe-Leu-Ser-Phe-Arg)) (stick diagram. Yellow, carbon; blue, nitrogen; red oxygen) binding to EGFR. EGFR is depicted as a surface model (red, basic surfaces; blue, acidic surfaces, yellow; cysteine residues; green, hydrophobic surfaces; white neutral surfaces). (e) PC-3 cells co-transfected with Rab5-mCherry (red), EGFR-GFP (green) and treated with hGIIA/AF647 (purple) as well as c2 at 1 μM and 10 μM for 24 hours. EGF (25 ng/mL) and Lapatinib (5 μM) were used as control treatments. N=3, >5 cells per replicate.
# PC-3 cells were seeded in a 6-well plate at 300,000 cells/well and grown overnight at 37° C. and 5% CO2. Cells were then incubated with 2 μg/mL hGIIA with and without FLM-c2 (100 μM) for two hours. After incubation, cells were washed three times with 10 mL ice cold PBS for 2 min. […]
# Chain of EGFR (P00533 25-1210): as above
structure (smiles),measurement,setting,value
"CC(C)C[C@@H]1NC(=O)[C@H](Cc2ccc3ccccc3c2)NC(=O)[C@H](CCCNC(=N)N)NC(=O)[C@H](Cc2ccc3ccccc3c2)NC(=O)[C@H](CO)NC1=O [FLM-c2, cyclo-((2-Nal)-Leu-Ser-(2-Nal)-Arg)] (cyclo([2Nal]LS[2Nal]R))",EGFR degradation by western blot,EGFR,did not
same,inhibition of hGIIA-driven eicosanoid production,[1],known to inhibit hGIIA-driven eicosanoid production
same,potency order in inhibiting the EGF/EGFR interaction,EGF-EGFR interaction,FLM-c2>D1>D2>D3
same,inhibition of the EGF/EGFR interaction,EGF-EGFR interaction; 0.01-200 μM,inhibited the EGF/EGFR interaction at high concentrations
same,"effect on EGFR, Rab5 and hGIIA localisation",[2],"increased hGIIA/AF647 and Rab5-mCherry punctate size, as well as circularisation of EGFR-GFP expression"
same,IC50,PC-3 cells,211 µM
same,inhibition of hGIIA-EGFR interaction (EGFR signal after pulldown with hGIIA antibody),[3],able to inhibit this interaction
